Test results published in ChEMBL document CHEMBL3862042 (J Med Chem, 2017).

Tests used:
[1] = target: T1, Phosphatidylinositol 4-kinase type 2-alpha (Homo sapiens, UniProt Q9BTU6); assay: Inhibition of PI4K2A (unknown origin) assessed as remaining enzyme activity by ADP-Glo kinase assay relative to untreated control; design: concentration or dose not given beside the values
[2] = Cytotoxicity against human HeLa cells incubated for 3 days by MTT assay; assay type: toxicity, cell-based
[3] = system: Hepatitis C virus; assay: microbe, parasite or virus in culture; settings: subtype 2a JFH1, Huh-7, 72 h
[4] = system: Hepatitis C virus; assay: microbe, parasite or virus in culture; settings: genotype 1b, Huh-7, 72 h
[5] = system: Coxsackievirus B3; assay: microbe, parasite or virus in culture; settings: Enterovirus B, Nancy, HeLa, 4 h
[6] = system: Human rhinovirus 1A; assay: microbe, parasite or virus in culture; settings: HeLa, 72 h
[7] = target: T2, Phosphatidylinositol 4-kinase beta (Homo sapiens, UniProt Q9UBF8); assay: Inhibition of PI4KB (unknown origin) at 1 uM by ADP-Glo kinase assay
[8] = target: Phosphatidylinositol 4,5-bisphosphate 3-kinase catalytic subunit alpha isoform (Homo sapiens, UniProt P42336); assay: Inhibition of PI3Kalpha (unknown origin) by ADP-Glo kinase assay
[9] = target: T1, Phosphatidylinositol 4-kinase type 2-alpha; assay: Inhibition of PI4K2A (unknown origin) by ADP-Glo kinase assay
[10] = target: Phosphatidylinositol 4-kinase alpha (Homo sapiens, UniProt P42356); assay: Inhibition of PI4KA (unknown origin) by ADP-Glo kinase assay
Phosphatidylinositol 4-kinase alpha, sequence (P42356 whole entry, canonical isoform): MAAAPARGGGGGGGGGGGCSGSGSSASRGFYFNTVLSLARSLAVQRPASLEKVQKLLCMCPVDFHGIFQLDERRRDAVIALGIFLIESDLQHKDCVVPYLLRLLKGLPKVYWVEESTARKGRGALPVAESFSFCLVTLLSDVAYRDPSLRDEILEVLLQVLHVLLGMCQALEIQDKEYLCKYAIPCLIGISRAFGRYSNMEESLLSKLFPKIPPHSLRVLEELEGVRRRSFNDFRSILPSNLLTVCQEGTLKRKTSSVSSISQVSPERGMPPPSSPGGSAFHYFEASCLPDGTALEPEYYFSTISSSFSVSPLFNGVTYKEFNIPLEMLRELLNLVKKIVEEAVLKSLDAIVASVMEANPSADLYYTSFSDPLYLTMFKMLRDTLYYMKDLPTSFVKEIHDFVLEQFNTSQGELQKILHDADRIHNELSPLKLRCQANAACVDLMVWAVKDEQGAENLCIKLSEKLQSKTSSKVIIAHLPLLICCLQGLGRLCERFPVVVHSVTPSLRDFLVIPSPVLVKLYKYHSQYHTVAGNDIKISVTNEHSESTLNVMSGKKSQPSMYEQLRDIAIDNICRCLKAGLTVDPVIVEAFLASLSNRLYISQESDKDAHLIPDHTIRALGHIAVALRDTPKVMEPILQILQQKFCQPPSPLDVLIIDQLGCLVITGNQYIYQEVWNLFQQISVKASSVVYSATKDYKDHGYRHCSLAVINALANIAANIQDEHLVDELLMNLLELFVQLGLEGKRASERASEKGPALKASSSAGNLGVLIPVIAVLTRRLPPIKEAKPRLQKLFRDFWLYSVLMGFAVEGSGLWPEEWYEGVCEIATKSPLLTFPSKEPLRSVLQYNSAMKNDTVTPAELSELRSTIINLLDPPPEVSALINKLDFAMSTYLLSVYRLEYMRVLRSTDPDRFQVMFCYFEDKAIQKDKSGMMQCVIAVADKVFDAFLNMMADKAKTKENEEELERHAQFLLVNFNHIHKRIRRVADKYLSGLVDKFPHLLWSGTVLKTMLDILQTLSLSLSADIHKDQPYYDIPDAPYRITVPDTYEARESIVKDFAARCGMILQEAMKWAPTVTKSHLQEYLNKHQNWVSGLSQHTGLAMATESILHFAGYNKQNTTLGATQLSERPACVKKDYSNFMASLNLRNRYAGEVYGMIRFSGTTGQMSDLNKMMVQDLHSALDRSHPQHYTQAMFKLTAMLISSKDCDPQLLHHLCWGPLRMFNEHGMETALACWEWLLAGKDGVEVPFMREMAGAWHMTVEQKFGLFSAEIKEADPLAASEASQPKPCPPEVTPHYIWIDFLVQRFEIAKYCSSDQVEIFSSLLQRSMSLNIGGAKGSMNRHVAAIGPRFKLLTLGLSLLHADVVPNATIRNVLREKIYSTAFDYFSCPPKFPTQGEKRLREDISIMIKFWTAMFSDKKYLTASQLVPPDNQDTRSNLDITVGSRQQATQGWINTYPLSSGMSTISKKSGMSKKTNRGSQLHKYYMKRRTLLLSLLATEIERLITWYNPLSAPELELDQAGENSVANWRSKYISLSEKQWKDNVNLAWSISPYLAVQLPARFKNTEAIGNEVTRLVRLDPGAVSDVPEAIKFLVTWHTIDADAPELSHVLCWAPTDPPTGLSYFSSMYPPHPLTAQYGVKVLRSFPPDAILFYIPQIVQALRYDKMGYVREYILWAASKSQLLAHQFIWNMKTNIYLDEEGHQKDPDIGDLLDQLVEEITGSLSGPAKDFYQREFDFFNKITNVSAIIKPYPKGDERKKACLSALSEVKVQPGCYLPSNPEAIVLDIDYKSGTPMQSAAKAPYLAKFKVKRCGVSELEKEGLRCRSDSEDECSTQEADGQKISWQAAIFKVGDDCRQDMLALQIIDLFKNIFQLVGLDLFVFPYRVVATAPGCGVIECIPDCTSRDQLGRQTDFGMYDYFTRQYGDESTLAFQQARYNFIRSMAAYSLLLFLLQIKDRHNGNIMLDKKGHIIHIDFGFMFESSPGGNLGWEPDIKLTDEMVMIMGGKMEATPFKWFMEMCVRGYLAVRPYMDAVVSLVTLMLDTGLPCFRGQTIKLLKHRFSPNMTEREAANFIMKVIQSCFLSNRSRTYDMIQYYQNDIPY

[11] = target: Phosphatidylinositol 4,5-bisphosphate 3-kinase catalytic subunit gamma isoform (Homo sapiens, UniProt P48736); assay: Inhibition of PI3Kgamma (unknown origin) by ADP-Glo kinase assay
[12] = target: T3, Phosphatidylinositol 4,5-bisphosphate 3-kinase catalytic subunit delta isoform (Homo sapiens, UniProt O00329); assay: Inhibition of PI3Kdelta (unknown origin) by ADP-Glo kinase assay
T3 sequence (O00329 whole entry): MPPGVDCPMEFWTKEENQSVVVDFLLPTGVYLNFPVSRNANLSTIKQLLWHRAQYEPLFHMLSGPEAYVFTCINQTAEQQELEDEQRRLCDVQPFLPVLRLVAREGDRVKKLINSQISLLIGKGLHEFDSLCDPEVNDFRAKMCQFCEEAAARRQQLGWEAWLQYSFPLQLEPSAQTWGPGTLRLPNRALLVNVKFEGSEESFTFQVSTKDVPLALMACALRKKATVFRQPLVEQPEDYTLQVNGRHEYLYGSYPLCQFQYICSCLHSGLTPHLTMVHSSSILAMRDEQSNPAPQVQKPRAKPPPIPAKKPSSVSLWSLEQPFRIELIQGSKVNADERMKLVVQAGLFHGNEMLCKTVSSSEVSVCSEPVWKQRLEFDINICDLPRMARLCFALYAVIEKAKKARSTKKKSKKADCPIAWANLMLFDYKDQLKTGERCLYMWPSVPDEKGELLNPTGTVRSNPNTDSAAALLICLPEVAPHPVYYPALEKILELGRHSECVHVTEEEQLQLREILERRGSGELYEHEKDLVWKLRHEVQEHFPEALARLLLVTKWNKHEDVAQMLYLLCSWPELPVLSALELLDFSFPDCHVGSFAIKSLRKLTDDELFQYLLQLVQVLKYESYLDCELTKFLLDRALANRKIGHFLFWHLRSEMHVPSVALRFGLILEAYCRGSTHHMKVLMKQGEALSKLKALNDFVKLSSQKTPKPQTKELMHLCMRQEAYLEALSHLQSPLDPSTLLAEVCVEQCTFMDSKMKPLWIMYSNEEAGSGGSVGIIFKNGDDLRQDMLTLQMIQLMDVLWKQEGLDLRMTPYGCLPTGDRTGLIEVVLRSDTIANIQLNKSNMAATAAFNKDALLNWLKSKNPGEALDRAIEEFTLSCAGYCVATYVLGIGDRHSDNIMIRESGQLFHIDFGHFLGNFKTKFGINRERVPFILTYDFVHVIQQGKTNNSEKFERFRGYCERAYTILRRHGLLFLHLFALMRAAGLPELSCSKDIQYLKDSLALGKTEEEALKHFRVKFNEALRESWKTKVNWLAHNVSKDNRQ

[13] = target: Phosphatidylinositol 4,5-bisphosphate 3-kinase catalytic subunit beta isoform (Homo sapiens, UniProt P42338); assay: Inhibition of PI3Kbeta (unknown origin) by ADP-Glo kinase assay
Phosphatidylinositol 4,5-bisphosphate 3-kinase catalytic subunit beta isoform, sequence (P42338 whole entry, canonical isoform): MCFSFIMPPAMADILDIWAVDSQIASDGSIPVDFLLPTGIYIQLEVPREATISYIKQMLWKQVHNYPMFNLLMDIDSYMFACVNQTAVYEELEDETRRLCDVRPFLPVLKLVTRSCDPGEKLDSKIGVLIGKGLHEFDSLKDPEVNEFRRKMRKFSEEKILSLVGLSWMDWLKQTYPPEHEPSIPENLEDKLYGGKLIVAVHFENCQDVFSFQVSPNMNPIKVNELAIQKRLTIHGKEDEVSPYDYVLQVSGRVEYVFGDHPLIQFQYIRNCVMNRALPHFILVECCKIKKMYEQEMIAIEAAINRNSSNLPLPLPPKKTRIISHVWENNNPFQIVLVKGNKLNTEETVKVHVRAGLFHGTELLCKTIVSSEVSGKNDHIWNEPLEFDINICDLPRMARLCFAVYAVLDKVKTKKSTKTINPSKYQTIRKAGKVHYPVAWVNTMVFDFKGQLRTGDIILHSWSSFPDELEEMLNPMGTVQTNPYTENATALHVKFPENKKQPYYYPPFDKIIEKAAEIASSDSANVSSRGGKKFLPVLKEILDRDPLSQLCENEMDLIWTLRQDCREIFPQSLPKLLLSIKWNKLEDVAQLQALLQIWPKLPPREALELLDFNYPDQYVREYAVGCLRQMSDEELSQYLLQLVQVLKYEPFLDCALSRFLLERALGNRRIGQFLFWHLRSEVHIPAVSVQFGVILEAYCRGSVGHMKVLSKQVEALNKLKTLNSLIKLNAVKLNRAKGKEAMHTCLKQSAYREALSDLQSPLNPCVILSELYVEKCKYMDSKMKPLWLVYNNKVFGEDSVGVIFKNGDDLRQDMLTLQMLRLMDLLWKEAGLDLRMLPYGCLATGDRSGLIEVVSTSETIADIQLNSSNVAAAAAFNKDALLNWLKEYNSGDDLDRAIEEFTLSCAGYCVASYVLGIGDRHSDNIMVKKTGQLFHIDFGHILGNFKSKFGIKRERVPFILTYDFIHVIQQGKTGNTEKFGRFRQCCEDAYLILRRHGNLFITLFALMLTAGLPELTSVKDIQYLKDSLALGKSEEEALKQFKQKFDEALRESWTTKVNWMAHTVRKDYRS

[14] = target: T2, Phosphatidylinositol 4-kinase beta; assay: Inhibition of PI4KB (unknown origin) by ADP-Glo kinase assay
Target sequence in this assay (Q9UBF8 whole entry, canonical isoform): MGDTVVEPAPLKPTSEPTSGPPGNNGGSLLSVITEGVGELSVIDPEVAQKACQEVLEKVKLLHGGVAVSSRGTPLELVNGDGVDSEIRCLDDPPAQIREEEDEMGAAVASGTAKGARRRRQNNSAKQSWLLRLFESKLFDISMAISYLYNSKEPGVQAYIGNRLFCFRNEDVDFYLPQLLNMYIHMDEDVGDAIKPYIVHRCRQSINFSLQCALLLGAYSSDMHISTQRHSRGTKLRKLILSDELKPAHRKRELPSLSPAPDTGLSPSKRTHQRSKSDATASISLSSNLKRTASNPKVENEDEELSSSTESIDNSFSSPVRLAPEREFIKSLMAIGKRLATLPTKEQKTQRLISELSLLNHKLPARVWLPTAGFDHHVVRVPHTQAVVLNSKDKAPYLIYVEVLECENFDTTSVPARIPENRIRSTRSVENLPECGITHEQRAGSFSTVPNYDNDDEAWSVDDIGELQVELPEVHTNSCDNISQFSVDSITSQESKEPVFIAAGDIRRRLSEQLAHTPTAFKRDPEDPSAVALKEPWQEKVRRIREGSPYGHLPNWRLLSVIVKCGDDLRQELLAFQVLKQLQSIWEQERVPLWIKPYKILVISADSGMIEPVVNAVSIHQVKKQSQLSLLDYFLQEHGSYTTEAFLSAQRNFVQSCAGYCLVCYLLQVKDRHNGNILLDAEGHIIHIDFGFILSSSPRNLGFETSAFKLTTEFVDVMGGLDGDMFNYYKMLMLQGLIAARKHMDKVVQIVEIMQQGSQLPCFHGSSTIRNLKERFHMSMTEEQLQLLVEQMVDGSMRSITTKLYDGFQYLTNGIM

T1 sequence (Q9BTU6 whole entry): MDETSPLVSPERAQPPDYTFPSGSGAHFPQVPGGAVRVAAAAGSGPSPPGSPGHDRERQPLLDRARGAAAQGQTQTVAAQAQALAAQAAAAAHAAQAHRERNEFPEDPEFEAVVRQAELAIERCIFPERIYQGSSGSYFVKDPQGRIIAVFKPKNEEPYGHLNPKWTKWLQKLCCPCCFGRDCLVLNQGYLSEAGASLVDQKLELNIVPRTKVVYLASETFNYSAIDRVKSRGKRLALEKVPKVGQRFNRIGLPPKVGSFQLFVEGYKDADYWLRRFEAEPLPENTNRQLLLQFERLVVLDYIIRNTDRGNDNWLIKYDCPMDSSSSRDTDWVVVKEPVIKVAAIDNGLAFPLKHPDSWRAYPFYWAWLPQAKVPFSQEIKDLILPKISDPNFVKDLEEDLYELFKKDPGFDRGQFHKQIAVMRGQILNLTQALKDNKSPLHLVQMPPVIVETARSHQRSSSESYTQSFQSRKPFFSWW

| Activity [1] [%] | EC50 [3] [µM] | EC50 [4] [µM] | EC50 [5] [µM] | EC50 [6] [µM] | Structure (SMILES) | CC50 at 72 h [2] [µM] | also measured |
| --- | --- | --- | --- | --- | --- | --- | --- |
| 101 | 26.5 | 9.2 | 0.056 | 0.069 | CCc1cc(CNc2cc(Cl)nn3c(-c4ccc(OC)c(S(=O)(=O)NC5CCC(N)CC5)c4)c(C)nc23)ccn1 (configuration not stated) | 5.76 |  |
| 88 |  |  |  |  | COc1ccc(-c2c(C)nc3c(NCCNC(C)=O)cc(Cl)nn23)cc1S(=O)(=O)N1CCC(O)CC1 |  |  |
| 106 |  |  |  |  | CCc1cc(CNc2cc(Cl)nn3c(-c4ccc(OC)c(S(=O)(=O)N(C)C)c4)c(C)nc23)ccn1 |  |  |
| 85 | > 44.4 | 1.83 | 5 | 5.42 | COc1ccc(-c2c(C)nc3c(NCCNC(C)=O)cc(Cl)nn23)cc1S(=O)(=O)N1CCC(CO)CC1 | 131 |  |
| 100 | 8.51 | 0.35 | 0.151 | < 0.01 | CCc1cc(CNc2cc(Cl)nn3c(-c4ccc(OC)c(S(=O)(=O)NCCN(C)C)c4)c(C)nc23)ccn1 | 5.56 |  |
| 105 | 20.1 | 0.667 | 0.012 | < 0.01 | C=CCNS(=O)(=O)c1cc(-c2c(C)nc3c(NCc4ccnc(CC)c4)cc(Cl)nn23)ccc1OC | 6.85 |  |
| 106 | 14.4 | 0.029 | 0.058 | 0.075 | CCc1cc(CNc2cc(Cl)nn3c(-c4ccc(OC)c(S(=O)(=O)NCCO)c4)c(C)nc23)ccn1 | 18.3 | inhibition [7]: 50%; IC50 [8]: < 10 µM; IC50 [9]: > 10 µM; IC50 [10]: 13.4 µM; IC50 [11]: < 10 µM; IC50 [12]: < 10 µM; IC50 [13]: < 10 µM |
| 73 |  |  |  |  | CNCCNS(=O)(=O)c1cc(-c2c(C)nc3c(NCCNC(C)=O)cc(Cl)nn23)ccc1OC |  |  |
| 104 | 9.44 | < 0.02 | 0.476 | < 0.01 | CCc1cc(CNc2cc(Cl)nn3c(-c4ccc(OC)c(S(=O)(=O)NC(CC)CO)c4)c(C)nc23)ccn1 (configuration not stated) | 17.9 |  |
| 112 |  |  |  |  | COc1ccc(-c2c(C)nc3c(NCCNC(C)=O)cc(Cl)nn23)cc1S(=O)(=O)NCCO |  |  |
| 112 | > 44.4 | 0.954 | 0.138 | < 0.01 | CCc1cc(CNc2cc(Cl)nn3c(-c4ccc(OC)c(S(=O)(=O)n5cccn5)c4)c(C)nc23)ccn1 | 61.9 |  |
| 93 | 35.9 | 2.68 | 5.31 | 0.99 | C=CCNS(=O)(=O)c1cc(-c2c(C)nc3c(NCCNC(C)=O)cc(Cl)nn23)ccc1OC | 445 |  |
| 102 |  |  |  |  | COc1ccc(-c2c(C)nc3c(NCCNC(C)=O)cc(Cl)nn23)cc1S(=O)(=O)NC1CCC(N)CC1 (configuration not stated) |  |  |
| 77 | > 44.4 | 3.42 | 1.66 | 6.76 | CCC(CO)NS(=O)(=O)c1cc(-c2c(C)nc3c(NCCNC(C)=O)cc(Cl)nn23)ccc1OC (configuration not stated) | > 50 |  |
| 101 |  |  |  |  | CCc1cc(CNc2cc(Cl)nn3c(-c4ccc(OC)cc4)c(C)nc23)ccn1 |  |  |
| 99 |  |  |  |  | CCc1cc(CNc2cc(Cl)nn3c(-c4ccc(OC)c(S(=O)(=O)N5CCCCC5)c4)c(C)nc23)ccn1 |  |  |
| 109 | 20.4 | 0.02 | 0.017 | < 0.01 | CCc1cc(CNc2cc(Cl)nn3c(-c4ccc(OC)c(S(=O)(=O)N5CCC(O)CC5)c4)c(C)nc23)ccn1 | 8.4 |  |
| 108 |  |  |  |  | COc1ccc(-c2c(C)nc3c(NCCNC(C)=O)cc(Cl)nn23)cc1S(=O)(=O)NC1CC1 |  |  |
| 83 |  |  |  |  | COc1ccc(-c2c(C)nc3c(NCCNC(C)=O)cc(Cl)nn23)cc1S(=O)(=O)n1cccn1 |  |  |
|  |  |  |  |  | CC(=O)NCCNc1cc(Cl)nn2c(-c3cccc(S(=O)(=O)N(C)C)c3)c(C)nc12 |  | IC50 [10]: > 100 µM; IC50 [14]: 0.054 µM |
| 104 | > 44.4 | 0.594 | 1.32 | 0.716 | COc1ccc(-c2c(C)nc3c(NCCNC(C)=O)cc(Cl)nn23)cc1S(=O)(=O)N(C)C | 84.2 |  |
| 107 |  |  |  |  | COCCNS(=O)(=O)c1cc(-c2c(C)nc3c(NCCNC(C)=O)cc(Cl)nn23)ccc1OC |  |  |
| 105 |  |  |  |  | COc1ccc(-c2c(C)nc3c(NCCNC(C)=O)cc(Cl)nn23)cc1S(=O)(=O)NCCN(C)C |  |  |
| 97 | 26 | 1.02 | 0.083 | < 0.01 | CCc1cc(CNc2cc(Cl)nn3c(-c4ccc(OC)c(S(=O)(=O)N5CCOCC5)c4)c(C)nc23)ccn1 | 25.7 |  |
| 88 | > 44.4 | 1.03 | 0.038 | 0.655 | COc1ccc(-c2c(C)nc3c(NCCNC(C)=O)cc(Cl)nn23)cc1S(=O)(=O)N1CCOCC1 | 89.2 |  |
| 114 |  |  |  |  | CCc1cc(CNc2cc(Cl)nn3c(-c4ccc(OC)c(S(=O)(=O)NC5CC5)c4)c(C)nc23)ccn1 |  |  |
|  | 8.69 | 0.393 | 1.1 | 0.062 | CCc1cc(CNc2cc(Cl)nn3c(-c4cccc(S(=O)(=O)N(C)C)c4)c(C)nc23)ccn1 | 15.4 |  |
| 115 |  |  |  |  | CCc1cc(CNc2cc(Cl)nn3c(-c4ccc(OC)c(S(=O)(=O)N5CCC(CO)CC5)c4)c(C)nc23)ccn1 |  |  |
| 104 | 27.9 | 0.416 | < 0.02 | < 0.01 | CCc1cc(CNc2cc(Cl)nn3c(-c4ccc(OC)c(S(=O)(=O)NCCOC)c4)c(C)nc23)ccn1 | 9.14 |  |
| 60 |  |  |  |  | COc1ccc(-c2c(C)nc3c(NCCNC(C)=O)cc(Cl)nn23)cc1S(=O)(=O)N1CCCCC1 |  |  |
